From patent US10793568B2, “Hormone receptor modulators for treating metabolic conditions and disorders” (ARDELYX, INC., priority 2016, dated 2020)
Read-outs that look alike come from different tables or passages of the source.

Key:
[1] = target: ligand binding domain of human FXR (Homo sapiens (Human), UniProt Q96RI1); assay: FXR ligand binding assay (LanthaScreen TR-FRET, SRC2-2 peptide recruitment); details: for Emax: read-out: % Efficacy
[2] = target: human Farnesoid X receptor ligand-binding domain/Gal4 DNA binding domain chimera (Homo sapiens (Human), UniProt Q96RI1); assay: Cell-based assay of FXR activation (FXR-UAS-bla HEK 293T beta-lactamase reporter); details: cellular FXR beta-lactamase reporter assay; for Emax: HEK-293T, extent of activation relative to GW4064, read-out: % Efficacy; for EC50: FXR-UAS-bla HEK 293T cells, 16 h, pEC50 = -log EC50
How it was run: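 HEK 293T cells stably expressing a Gal4-fused human FXR LBD and a UAS-driven beta-lactamase reporter were incubated with serially diluted compounds for 16 h at 37 °C in phenol red-free DMEM with 2% charcoal-stripped FBS. CCF4 FRET read-out: excitation 409 nm, emission 447 nm. pEC50 comes from a 3-parameter logistic fit, and efficacy is given as % of GW4064.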

[3] = -log EC50, concentration required to produce 50% activation
[4] = extent of activation relative to GW4064

Sequence of ligand binding domain of human FXR (Q96RI1 262-486): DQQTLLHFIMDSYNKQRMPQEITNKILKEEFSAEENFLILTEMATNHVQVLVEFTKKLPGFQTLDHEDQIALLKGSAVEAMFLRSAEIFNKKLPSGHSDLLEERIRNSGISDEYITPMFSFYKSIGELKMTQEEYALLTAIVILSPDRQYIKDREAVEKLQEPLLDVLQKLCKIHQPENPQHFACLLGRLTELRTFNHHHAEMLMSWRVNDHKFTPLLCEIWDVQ
Sequence of human Farnesoid X receptor ligand-binding domain/Gal4 DNA binding domain chimera (Q96RI1 262-486, change not shown): as the sequence (Q96RI1 262-486) above
Sequence of human Farnesoid X receptor ligand-binding domain/Gal4 DNA binding domain chimera (P04386 1-147 partner): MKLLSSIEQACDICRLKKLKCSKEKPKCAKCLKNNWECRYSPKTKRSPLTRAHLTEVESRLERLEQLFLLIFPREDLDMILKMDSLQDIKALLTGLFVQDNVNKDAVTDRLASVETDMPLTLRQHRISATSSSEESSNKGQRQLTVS

EC50 [1, 3] [nM]	Structure (SMILES)	pEC50 [1, 3]	Emax [1, 4] [%]	Emax [2] [%]	EC50 [2] [nM]	Emax [1] [%]
	O=c1[nH]c2cc(N3C[C@@H]4C[C@H]3C[C@H]4OCc3c(-c4c(Cl)cccc4Cl)noc3C3CC3)ccc2o1 [Compound I-140, 5-[(1S,4S,5R)-5-{[5-cyclopropyl-3-(2,6-dichlorophenyl)-1,2-oxazol-4-yl]methoxy}-2-azabicyclo[2.2.1]heptan-2-yl]-2,3-dihydro-1,3-benzoxazol-2-one]	9.1	142	121	20	
	O=C(NCCS(=O)(=O)C1CC1)c1ccc(N2C[C@@H]3C[C@H]2C[C@H]3OCc2c(-c3c(Cl)cccc3Cl)noc2C2CC2)cc1F [Compound I-171, N-[2-(cyclopropanesulfonyl)ethyl]-4-[(1S,4S,5R)-5-{[5-cyclopropyl-3-(2,6-dichlorophenyl)-1,2-oxazol-4-yl]methoxy}-2-azabicyclo[2.2.1]heptan-2-yl]-2-fluorobenzamide]	8.6	147	104	0.794	
	CCCS(=O)(=O)NC(=O)c1ccc(N2C[C@@H]3C[C@H]2C[C@H]3OCc2c(-c3c(Cl)cccc3Cl)noc2C2CC2)nc1 [Compound I-204, 6-((1S,4S,5R)-5-((5-cyclopropyl-3-(2,6-dichlorophenyl)isoxazol-4-yl)methoxy)-2-azabicyclo[2.2.1]heptan-2-yl)-N-(propylsulfonyl)nicotinamide]	8.4	136	104	2.51	
	CS(=O)(=O)NC(=O)CCc1ccc(N2C[C@@H]3C[C@H]2C[C@H]3OCc2c(-c3c(F)cccc3Cl)noc2C2CC2)c(F)c1 [Compound I-239, 3-(4-((1S,4S,5R)-5-((3-(2-chloro-6-fluorophenyl)-5-cyclopropylisoxazol-4-yl)methoxy)-2-azabicyclo[2.2.1]heptan-2-yl)-3-fluorophenyl)-N-(methylsulfonyl)propanamide]	8.2	176	94	7.94	
	O=C(O)c1cc([C@@H]2CCOC2)c2nc(N3C[C@@H]4C[C@H]3C[C@H]4OCc3c(C4CCC5(CC4)CC5)noc3C3CC3)sc2c1 [Compound I-281, 2-((1S,4S,5R)-5-((5-cyclopropyl-3-(spiro[2.5]octan-6-yl)isoxazol-4-yl)methoxy)-2-azabicyclo[2.2.1]heptan-2-yl)-4-((S)-tetrahydrofuran-3-yl)benzo[d]thiazole-6-carboxylic acid]	7.4	104	105	15.8	
	O=C(CCc1ccc(N2C[C@@H]3C[C@H]2C[C@H]3OCc2c(-c3c(F)cccc3Cl)noc2C2CC2)c(F)c1)NS(=O)(=O)C1CC1 [Compound I-240, 3-(4-((1S,4S,5R)-5-((3-(2-chloro-6-fluorophenyl)-5-cyclopropylisoxazol-4-yl)methoxy)-2-azabicyclo[2.2.1]heptan-2-yl)-3-fluorophenyl)-N-(cyclopropylsulfonyl)propanamide]	8.1	162	92	6.31	
	O=C(O)C1CN(Cc2ccc(N3C[C@@H]4C[C@H]3C[C@H]4OCc3c(-c4c(Cl)cccc4Cl)noc3C3CC3)cc2)C1 [Compound I-160, 1-({4-[(1S,4S,5R)-5-{[5-cyclopropyl-3-(2,6-dichlorophenyl)-1,2-oxazol-4-yl]methoxy}-2-azabicyclo[2.2.1]heptan-2-yl]phenyl}methyl)azetidine-3-carboxylic Acid]	6.9	93	110	1000	
	CS(=O)(=O)NC(=O)c1cc(F)c2nc(N3C[C@@H]4C[C@H]3C[C@H]4OC(=O)c3c(-c4c(Cl)cccc4Cl)noc3C3CC3)sc2c1 [Compound I-31, (1S,4S,5R)-2-[4-fluoro-6-(methanesulfonylcarbamoyl)-1,3-benzothiazol-2-yl]-2-azabicyclo[2.2.1]heptan-5-yl 5-cyclopropyl-3-(2,6-dichlorophenyl)-1,2-oxazole-4-carboxylate]	7.4	117	115	158	
	O=C(O)c1cc(OC(F)(F)F)c2nc(N3C[C@@H]4C[C@H]3C[C@H]4OC(=O)c3c(-c4c(Cl)cccc4Cl)noc3C3CC3)sc2c1 [Compound I-6]	7.7	173	112	3.98	
	FC(F)(F)Oc1cc(-c2nn[nH]n2)cc2sc(N3C[C@@H]4C[C@H]3C[C@H]4OCc3c(-c4c(Cl)cccc4Cl)noc3C3CC3)nc12 [Compound I-27, 2-[(1S,4S,5R)-5-{[5-cyclopropyl-3-(2,6-dichlorophenyl)-1,2-oxazol-4-yl]methoxy}-2-azabicyclo[2.2.1]heptan-2-yl]-4-trifluoromethoxy-6-(2H-1,2,3,4-tetrazol-5-yl)-1,3-benzothiazole]		130	94	2	
	O=C(O)CCc1ccc(N2C[C@@H]3C[C@H]2C[C@H]3OCc2c(-c3c(Cl)cccc3Cl)noc2C2CC2)cc1 [Compound I-147, 3-{4-[(1S,4S,5R)-5-{[5-cyclopropyl-3-(2,6-dichlorophenyl)-1,2-oxazol-4-yl]methoxy}-2-azabicyclo[2.2.1]heptan-2-yl]phenyl}propanoic Acid]	8.1		112	0.631	142
	O=C(O)CCCc1ccc(N2C[C@@H]3C[C@H]2C[C@H]3OCc2c(-c3c(Cl)cccc3Cl)noc2C2CC2)cc1 [Compound I-148, 4-{4-[(1S,4S,5R)-5-{[5-cyclopropyl-3-(2,6-dichlorophenyl)-1,2-oxazol-4-yl]methoxy}-2-azabicyclo[2.2.1]heptan-2-yl]phenyl}butanoic Acid]	7.8	136	117	20	
	O=C(CCc1ccc(N2C[C@@H]3C[C@H]2C[C@H]3OCc2c(-c3c(Cl)cccc3Cl)noc2C2CC2)c(F)c1)NS(=O)(=O)C1CC1 [Compound I-237, 3-(4-((1S,4S,5R)-5-((5-cyclopropyl-3-(2,6-dichlorophenyl)isoxazol-4-yl)methoxy)-2-azabicyclo[2.2.1]heptan-2-yl)-3-fluorophenyl)-N-(cyclopropylsulfonyl)propanamide]	8.7	162	94	2.51	
10	CCCS(=O)(=O)NC(=O)c1ccc(N2C[C@@H]3C[C@H]2C[C@H]3OCc2c(-c3c(Cl)cccc3Cl)noc2C2(F)CC2)nc1 [Compound I-208, 6-[(1S,4S,5R)-5-[[3-(2,6-dichlorophenyl)-5-(1 I-fluorocyclopropyl)-1,2-oxazol-4-yl]methoxy]-2-azabicyclo[2.2.1]heptan-2-yl]-N-(propane-1-sulfonyl)pyridine-3-carboxamide]		166	104	5.01	
	CC(=O)OC(C)CCS(=O)(=O)NC(=O)c1ccc(N2C[C@@H]3C[C@H]2C[C@H]3OCc2c(-c3c(Cl)cccc3Cl)noc2C2CC2)cc1 (stereo partly drawn) [Compound I-216, 4-[({4-[(1S,4S,5R)-5-{[5-cyclopropyl-3-(2,6-dichlorophenyl)-1,2-oxazol-4-yl]methoxy}-2-azabicyclo[2.2.1]heptan-2-yl]phenyl}formamido)sulfonyl]butan-2-yl Acetate]	9.4		112	0.398	145
	CS(=O)(=O)NC(=O)c1cc(F)c2nc(N3C[C@@H]4C[C@H]3C[C@H]4OCc3c(-c4c(Cl)cccc4Cl)noc3C3CC3)sc2c1 [Compound I-28, 2-[(1S,4S,5R)-5-{[5-cyclopropyl-3-(2,6-dichlorophenyl)-1,2-oxazol-4-yl]methoxy}-2-azabicyclo[2.2.1]heptan-2-yl]-4-fluoro-N-methanesulfonyl-1,3-benzothiazole-6-carboxamide]	8.9	153	122	2	
	O=C(NS(=O)(=O)C1CCOCC1)c1ccc(N2C[C@@H]3C[C@H]2C[C@H]3OCc2c(C3CCC4(CC3)CC4)noc2C2CC2)c(F)c1 [Compound I-230, 4-((1S,4S,5R)-5-((5-cyclopropyl-3-(spiro[2.5]octan-6-yl)isoxazol-4-yl)methoxy)-2-azabicyclo[2.2.1]heptan-2-yl)-3-fluoro-N-((tetrahydro-2H-pyran-4-yl)sulfonyl)benzamide]	8	150	104	6.31	
	CCCCCS(=O)(=O)NC(=O)c1ccc(N2C[C@@H]3C[C@H]2C[C@H]3OCc2c(-c3c(Cl)cccc3Cl)noc2C2CC2)c(F)c1 [Compound I-191, 4-((1S,4S,5R)-5-((5-cyclopropyl-3-(2,6-dichlorophenyl)isoxazol-4-yl)methoxy)-2-azabicyclo[2.2.1]heptan-2-yl)-3-fluoro-N-(pentylsulfonyl)benzamide]	8.4	163	111	0.0398	
	CC(=O)OCCS(=O)(=O)NC(=O)c1ccc(N2C[C@@H]3C[C@H]2C[C@H]3OCc2c(-c3c(Cl)cccc3Cl)noc2C2CC2)cc1 [Compound I-211, 2-[({4-[(1S,4S,5R)-5-{[5-cyclopropyl-3-(2,6-dichlorophenyl)-1,2-oxazol-4-yl]methoxy}-2-azabicyclo[2.2.1]heptan-2-yl]phenyl}formamido)sulfonyl]ethyl Acetate]	8.4	152	105	1	
